Common to all, as to assay: relative viability (nuclei count vs DMSO), 5 days (fraction); higher = more cells survive
Compound in the test “PAC-1 + Palbociclib”: C=CCc1cccc(/C=N/NC(=O)CN2CCN(Cc3ccccc3)CC2)c1O [PAC-1] + CC(=O)c1c(C)c2cnc(Nc3ccc(N4CCNCC4)cn3)nc2n(C2CCCC2)c1=O [Palbociclib] (partner 0.5 µM)
The method in brief:
(§1)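 Lung cancer cell lines were seeded in 1536-well plates and dosed by pin tool the next day, with either a single drug or a fixed anchor-drug dose combined with five library-drug doses (not always all listed) spaced in √10 steps. Five days later, one step fixed the cells and stained their nuclei (final 0.05% Triton X-100, 1% formaldehyde, 1 ug/ml Hoechst), and nuclei were counted on 4× images. Relative viability is the nuclei count in treated wells divided by the count in vehicle wells, and each value is the median of duplicate plates.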

Compound in the test “PAC-1 + Luminespib”: C=CCc1cccc(/C=N/NC(=O)CN2CCN(Cc3ccccc3)CC2)c1O [PAC-1] + CCNC(=O)c1noc(-c2cc(C(C)C)c(O)cc2O)c1-c1ccc(CN2CCOCC2)cc1 [Luminespib] (partner 0.01 µM)
The method in brief: as §1

Compound in the test “BMX-IN-1 + Navitoclax”: C=CC(=O)Nc1cc(-n2c(=O)ccc3cnc4ccc(-c5ccc(NS(C)(=O)=O)cc5)cc4c32)ccc1C [BMX-IN-1] + CC1(C)CCC(c2ccc(Cl)cc2)=C(CN2CCN(c3ccc(C(=O)NS(=O)(=O)c4ccc(N[C@H](CCN5CCOCC5)CSc5ccccc5)c(S(=O)(=O)C(F)(F)F)c4)cc3)CC2)C1 [Navitoclax] (partner 0.5 µM)
The method in brief: as §1

Compound in the test “PAC-1 + Lapatinib”: C=CCc1cccc(/C=N/NC(=O)CN2CCN(Cc3ccccc3)CC2)c1O [PAC-1] + CS(=O)(=O)CCNCc1ccc(-c2ccc3ncnc(Nc4ccc(OCc5cccc(F)c5)c(Cl)c4)c3c2)o1 [Lapatinib] (partner 2 µM)
The method in brief:
as §1

Compound in the test “BMX-IN-1 + AZD7762”: C=CC(=O)Nc1cc(-n2c(=O)ccc3cnc4ccc(-c5ccc(NS(C)(=O)=O)cc5)cc4c32)ccc1C [BMX-IN-1] + NC(=O)Nc1cc(-c2cccc(F)c2)sc1C(=O)N[C@H]1CCCNC1 [AZD7762] (partner 0.2 µM)
The method in brief:
as §1

Turning to NCI-H1395, the relative viability in the test with PAC-1 + Palbociclib (first compound 0.02 µM) was determined as 0.624; with PAC-1 + Palbociclib (first compound 0.06325 µM) it was 0.648; with PAC-1 + Palbociclib (first compound 0.2 µM), 0.593; with PAC-1 + Palbociclib (first compound 2 µM), 0.572; with PAC-1 + Luminespib (first compound 0.02 µM), 0.656; with PAC-1 + Luminespib (first compound 0.06325 µM), 0.585. Further, the relative viability with PAC-1 + Luminespib (first compound 0.2 µM) was found to be 0.651; with PAC-1 + Luminespib (first compound 2 µM), 0.653; with BMX-IN-1 + Navitoclax (first compound 0.02 µM), 0.972; with BMX-IN-1 + Navitoclax (first compound 0.2 µM) it was 1.09; with BMX-IN-1 + Navitoclax (first compound 0.6325 µM), 1.07; in the test with BMX-IN-1 + Navitoclax (first compound 2 µM) it was 1.14. For the same cell line, the relative viability worked out at 1.12 with PAC-1 + Lapatinib (first compound 0.02 µM); 1 in the test with PAC-1 + Lapatinib (first compound 0.06325 µM); 0.881 with PAC-1 + Lapatinib (first compound 0.2 µM); 1.01 in the test with PAC-1 + Lapatinib (first compound 2 µM); 0.4 with BMX-IN-1 + AZD7762 (first compound 0.02 µM); 0.407 with BMX-IN-1 + AZD7762 (first compound 0.2 µM). Also, the relative viability is 0.434 with BMX-IN-1 + AZD7762 (first compound 0.6325 µM) and 0.376 with BMX-IN-1 + AZD7762 (first compound 2 µM).
For the cell line NCI-H1437, the relative viability with PAC-1 + Palbociclib (first compound 0.02 µM) amounted to 0.298; with PAC-1 + Palbociclib (first compound 0.06325 µM) it was 0.35; with PAC-1 + Palbociclib (first compound 0.2 µM), 0.355; with PAC-1 + Palbociclib (first compound 2 µM), 0.307; with PAC-1 + Luminespib (first compound 0.02 µM), 1.15; with PAC-1 + Luminespib (first compound 0.06325 µM), 1.13. The relative viability in the test with PAC-1 + Luminespib (first compound 0.2 µM) amounted to 1.06; with PAC-1 + Luminespib (first compound 2 µM) it was 0.907; in the test with BMX-IN-1 + Navitoclax (first compound 0.02 µM) it was 1.3; with BMX-IN-1 + Navitoclax (first compound 0.2 µM), 1.33; in the test with BMX-IN-1 + Navitoclax (first compound 0.6325 µM) it was 1.07; with BMX-IN-1 + Navitoclax (first compound 2 µM) it was 1.18. In addition, the relative viability came to 0.758 in the test with PAC-1 + Lapatinib (first compound 0.02 µM); 0.828 with PAC-1 + Lapatinib (first compound 0.06325 µM); 0.751 in the test with PAC-1 + Lapatinib (first compound 0.2 µM); 0.679 with PAC-1 + Lapatinib (first compound 2 µM); 1.26 with BMX-IN-1 + AZD7762 (first compound 0.02 µM); 1.26 with BMX-IN-1 + AZD7762 (first compound 0.2 µM). Besides, the relative viability in the test with BMX-IN-1 + AZD7762 (first compound 0.6325 µM) and in the test with BMX-IN-1 + AZD7762 (first compound 2 µM) was 1.11 throughout.
Consider NCI-H1651, for which the relative viability came out at 0.525 with PAC-1 + Palbociclib (first compound 0.02 µM); 0.536 with PAC-1 + Palbociclib (first compound 0.06325 µM); 0.547 with PAC-1 + Palbociclib (first compound 0.2 µM); 0.499 with PAC-1 + Palbociclib (first compound 2 µM); 0.789 with PAC-1 + Luminespib (first compound 0.02 µM); 0.859 in the test with PAC-1 + Luminespib (first compound 0.06325 µM). The relative viability was found to be 0.744 with PAC-1 + Luminespib (first compound 0.2 µM); 0.905 in the test with PAC-1 + Luminespib (first compound 2 µM); 1.24 with BMX-IN-1 + Navitoclax (first compound 0.02 µM); 1.2 in the test with BMX-IN-1 + Navitoclax (first compound 0.2 µM); 1.02 in the test with BMX-IN-1 + Navitoclax (first compound 0.6325 µM); 1.04 with BMX-IN-1 + Navitoclax (first compound 2 µM). Moreover, the relative viability in the test with PAC-1 + Lapatinib (first compound 0.02 µM) came to 0.757; with PAC-1 + Lapatinib (first compound 0.06325 µM) it was 0.8; in the test with PAC-1 + Lapatinib (first compound 0.2 µM), 0.725; with PAC-1 + Lapatinib (first compound 2 µM) it was 0.855; with BMX-IN-1 + AZD7762 (first compound 0.02 µM) it was 0.557; with BMX-IN-1 + AZD7762 (first compound 0.2 µM), 0.503. For the same cell line, the relative viability in the test with BMX-IN-1 + AZD7762 (first compound 0.6325 µM) worked out at 0.527; with BMX-IN-1 + AZD7762 (first compound 2 µM) it was 0.422.
Take NCI-H1666: the relative viability was determined as 0.605 in the test with PAC-1 + Palbociclib (first compound 0.02 µM); 0.643 with PAC-1 + Palbociclib (first compound 0.06325 µM); 0.676 with PAC-1 + Palbociclib (first compound 0.2 µM); 0.632 in the test with PAC-1 + Palbociclib (first compound 2 µM); 0.981 in the test with PAC-1 + Luminespib (first compound 0.02 µM); 1.08 with PAC-1 + Luminespib (first compound 0.06325 µM). The relative viability in the test with PAC-1 + Luminespib (first compound 0.2 µM) worked out at 1.08; with PAC-1 + Luminespib (first compound 2 µM), 0.864; with BMX-IN-1 + Navitoclax (first compound 0.02 µM), 1.09; with BMX-IN-1 + Navitoclax (first compound 0.2 µM), 0.979; with BMX-IN-1 + Navitoclax (first compound 0.6325 µM), 0.938; with BMX-IN-1 + Navitoclax (first compound 2 µM), 0.92. Further, the relative viability is 0.613 with PAC-1 + Lapatinib (first compound 0.02 µM); 0.608 with PAC-1 + Lapatinib (first compound 0.06325 µM); 0.911 with PAC-1 + Lapatinib (first compound 0.2 µM); 0.663 with PAC-1 + Lapatinib (first compound 2 µM); 0.804 with BMX-IN-1 + AZD7762 (first compound 0.02 µM); 0.886 with BMX-IN-1 + AZD7762 (first compound 0.2 µM). Further, the relative viability worked out at 0.901 with BMX-IN-1 + AZD7762 (first compound 0.6325 µM) and 0.871 with BMX-IN-1 + AZD7762 (first compound 2 µM).
For NCI-H1734, the relative viability in the test with PAC-1 + Palbociclib (first compound 0.02 µM) came to 0.307; with PAC-1 + Palbociclib (first compound 0.06325 µM) it was 0.328; in the test with PAC-1 + Palbociclib (first compound 0.2 µM) it was 0.297; with PAC-1 + Palbociclib (first compound 2 µM), 0.355; in the test with PAC-1 + Luminespib (first compound 0.02 µM), 0.169; with PAC-1 + Luminespib (first compound 0.06325 µM), 0.178. In addition, the relative viability with PAC-1 + Luminespib (first compound 0.2 µM) was determined as 0.18; with PAC-1 + Luminespib (first compound 2 µM), 0.189; with BMX-IN-1 + Navitoclax (first compound 0.02 µM) it was 1.01; with BMX-IN-1 + Navitoclax (first compound 0.2 µM) it was 0.907; in the test with BMX-IN-1 + Navitoclax (first compound 0.6325 µM), 0.953; in the test with BMX-IN-1 + Navitoclax (first compound 2 µM), 0.949. Further, the relative viability came to 1.12 in the test with PAC-1 + Lapatinib (first compound 0.02 µM); 0.987 with PAC-1 + Lapatinib (first compound 0.06325 µM); 1.04 in the test with PAC-1 + Lapatinib (first compound 0.2 µM); 1.01 with PAC-1 + Lapatinib (first compound 2 µM); 0.683 with BMX-IN-1 + AZD7762 (first compound 0.02 µM); 0.623 in the test with BMX-IN-1 + AZD7762 (first compound 0.2 µM). Further, the relative viability came to 0.542 with BMX-IN-1 + AZD7762 (first compound 0.6325 µM) and 0.669 with BMX-IN-1 + AZD7762 (first compound 2 µM).
For NCI-H1755, the relative viability turned out to be 0.473 in the test with PAC-1 + Palbociclib (first compound 0.02 µM); 0.444 in the test with PAC-1 + Palbociclib (first compound 0.06325 µM); 0.453 with PAC-1 + Palbociclib (first compound 0.2 µM); 0.468 with PAC-1 + Palbociclib (first compound 2 µM); 0.482 with PAC-1 + Luminespib (first compound 0.02 µM); 0.306 with PAC-1 + Luminespib (first compound 0.06325 µM). For the same cell line, the relative viability with PAC-1 + Luminespib (first compound 0.2 µM) was 0.502; in the test with PAC-1 + Luminespib (first compound 2 µM) it was 0.563; with BMX-IN-1 + Navitoclax (first compound 0.02 µM), 1.01; with BMX-IN-1 + Navitoclax (first compound 0.2 µM), 1.05; in the test with BMX-IN-1 + Navitoclax (first compound 0.6325 µM), 1.07; in the test with BMX-IN-1 + Navitoclax (first compound 2 µM), 1.03. Moreover, the relative viability with PAC-1 + Lapatinib (first compound 0.02 µM) is 0.987; in the test with PAC-1 + Lapatinib (first compound 0.06325 µM) it was 1.03; in the test with PAC-1 + Lapatinib (first compound 0.2 µM), 1.02; with PAC-1 + Lapatinib (first compound 2 µM), 1.05; with BMX-IN-1 + AZD7762 (first compound 0.02 µM), 0.543; in the test with BMX-IN-1 + AZD7762 (first compound 0.2 µM) it was 0.491. Besides, the relative viability was determined as 0.453 with BMX-IN-1 + AZD7762 (first compound 0.6325 µM) and 0.466 with BMX-IN-1 + AZD7762 (first compound 2 µM).
With NCI-H1792, the relative viability worked out at 0.692 with PAC-1 + Palbociclib (first compound 0.02 µM); 0.627 with PAC-1 + Palbociclib (first compound 0.06325 µM); 0.64 with PAC-1 + Palbociclib (first compound 0.2 µM); 0.627 in the test with PAC-1 + Palbociclib (first compound 2 µM); 0.355 with PAC-1 + Luminespib (first compound 0.02 µM); 0.484 with PAC-1 + Luminespib (first compound 0.06325 µM). The relative viability with PAC-1 + Luminespib (first compound 0.2 µM) was found to be 0.47; with PAC-1 + Luminespib (first compound 2 µM) it was 0.416; with BMX-IN-1 + Navitoclax (first compound 0.02 µM), 0.559; in the test with BMX-IN-1 + Navitoclax (first compound 0.2 µM), 0.632; with BMX-IN-1 + Navitoclax (first compound 0.6325 µM), 0.49; with BMX-IN-1 + Navitoclax (first compound 2 µM), 0.724. In addition, the relative viability with PAC-1 + Lapatinib (first compound 0.02 µM) turned out to be 0.978; with PAC-1 + Lapatinib (first compound 0.06325 µM), 0.91; in the test with PAC-1 + Lapatinib (first compound 0.2 µM), 0.923; with PAC-1 + Lapatinib (first compound 2 µM) it was 0.934; with BMX-IN-1 + AZD7762 (first compound 0.02 µM) it was 0.896; with BMX-IN-1 + AZD7762 (first compound 0.2 µM) it was 0.79. The relative viability was determined as 0.866 with BMX-IN-1 + AZD7762 (first compound 0.6325 µM) and 0.885 with BMX-IN-1 + AZD7762 (first compound 2 µM).
